Test results from patent US20060177385A1, “Compositions for treating dental caries caused by streptococcus mutans infection” (priority 2002, published 2006).

Assays:
bacteria = conditions: cited from earlier work
[1] = single rinse, mouthrinse, 10 subjects; cited from earlier work
[2] = target: T1, Rhodobacter sphaeroides (Rb.s.) ADPG Ppase (Cereibacter sphaeroides, UniProt Q9RNH7); assay: ADPG Ppase enzyme assay (14C Glc-1-P to ADPGlucose) with ADPG borano analogs; format: biochemical; parameters: *2.2: unit not given here; conditions: for inhibition of Rb.s. ADPG Ppase: 500 μM
T1 construct: made in house
T1 sequence (Q9RNH7 whole entry): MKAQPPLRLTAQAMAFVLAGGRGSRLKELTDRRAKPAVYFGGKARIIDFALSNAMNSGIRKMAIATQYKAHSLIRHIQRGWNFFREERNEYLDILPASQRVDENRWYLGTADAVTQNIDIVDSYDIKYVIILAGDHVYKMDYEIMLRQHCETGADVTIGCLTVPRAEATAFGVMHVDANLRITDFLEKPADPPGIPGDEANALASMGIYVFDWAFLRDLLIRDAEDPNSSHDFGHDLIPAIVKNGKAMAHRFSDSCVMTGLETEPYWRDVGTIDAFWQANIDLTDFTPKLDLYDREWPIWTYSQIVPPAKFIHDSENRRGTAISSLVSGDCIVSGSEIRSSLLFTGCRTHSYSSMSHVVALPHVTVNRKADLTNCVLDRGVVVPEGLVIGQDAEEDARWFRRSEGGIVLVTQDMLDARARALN
Text: Assaying for ADPGlc synthesis activity involves measuring the amount of 14-C labeled Glc-1-P converted to ADPGlucose (Preiss, J., Shen, L., Greenberg, E., and Gentner, N. (1966) Biochemistry 5, 1833-1845). Briefly, unreacted Glc-1-P is separated from product by the following steps: 1) digestion with alkaline phosphatase (thus removing the negatively charged phosphate); 2) spotting an aliquot of the reaction mixture on to positively charged DE-81 filters (Whatman); and 3) washing the filters with water (thus removing the now neutral C-14 glucose).
To assess the effect of a putative inhibitor, enzyme assays are performed at a subsaturating concentration of substrate (depending on the enzyme, ATP=0.2-1 mM, Glc-1-P=0.5 mM) under standard conditions in the absence and presence of the major activator for each enzyme (1-5 mM depending on enzyme). In this way, the effect of the inhibitors can be evaluated under the range of the expected in vivo conditions. Initial screening of a putative inhibitor typically includes testing at two concentrations (˜25 μM and 1 mM)±major activator with appropriate controls and blanks for a total of 9 assays/inhibitor/enzyme (2 control assays—appropriate enzyme concentrations in the absence of inhibitor, 4 experimental assays; 1 blank in the absence of inhibitors; 2 blanks in the presence of inhibitor (no activator required).
The APDGlc Ppase from Rhodobacter sphaeroides has been used as a model enzyme for initial testing of inhibitors as it has been cloned, sequenced, and expressed in the inventor's laboratory (Meyer et al (1999) Arch. Biochem. Biophys. 372, 179-188; Igarashi, R. Y. and Meyer, C. R. (2000) Arch. Biochem Biophys. 376, 47-58) and the purified recombinant enzyme is readily available. Further, this particular enzyme has the most complex regulation (having partial overlap with nearly every type of ADPG Ppase) and has sufficient homology (ranging from ˜40-70% similarity) to the enzyme primary sequence from the mentioned pathogenic bacteria.
1. OVERVIEW: 2 analogs (ANALOG; stereoisomers I, II) of adenosine-α-P-boranodiphosphoglucose were tested for inhibiting activity against the ADPG Ppase enzyme from Rhodobacter sphaeroides (Rb.s.) ADPG Ppase.
PREMIX: A: 100 mM HEPES (pH 7), 0.5 mg/mL BSA, 0.5 mM Glc-1-P, 0.25 mM ATP subsaturating (near S0.5 value), 5 mM MgCl2, (0.2 U Pyrophosphatase))
(170 μL premix will allow 20 μL for analog vol., 10 μL of E)
II. ANALOG CONC.=5, 50, 500 μM (STOCK CONC.=5 mM) in 50 mM HEPES, pH 7, note that 20 μL of 5 mM in 200 μL assay will yield 500 μM final concentration to obtain 5
• ANALOG I: add 625 μL of HEPES buffer, mix thoroughly • ANALOG II: add 500 μL of HEPES buffer, mix thoroughly 1:10 DILUTION ALIQUOTS OF 5 mM STOCKS are prepared in order to generate stock solutions that will give 50 and 5 μM with the addition of 20 μL. 100 μL aliquots are stored at −20 C RBS ADPG PPASE WT ENZYME CONC.=17 mg/mL (use 1:8000 dilution in Dilution Buffer) The Following Assay Set of 11 are Utilized for Each Analog 1—BLANK (Premix A) 2—BLANK+50 μM ANALOG (A) 3—BLANK+500 μM ANALOG (A) 4—E CON (A) 5—E CON+F6P (B) 6—E+5 μM (A) 7—E+5 μM (B) 8—E+50 μM (A) 9—E+50 μM (B) 10—E+500 μM (A) 11—E+500 μM (B)
Purified Rb.s ADPG Ppase was assayed under standard conditions (0.25 mM ATP [˜S0.5 value], 0.5 mM Glc-1-P, 5 mM Mg, 100 mM HEPES, pH7) in the presence and absence of the activator F6P (1 mM) at 3 concentrations of the analogs: 5, 50, and 500 μM. Analog stock solutions were made in 50 mM HEPES, pH 7). These concentrations should be regarded as estimates as there could have been some breakdown of the compounds during 2 years of storage at −20° C. The analogs had no effect on the background cpm of the assays.

[3] = 5 uM analog, premix B (+1 mM F6P)
[4] = 50 uM analog, premix A (no F6P)
[5] = 50 uM analog, premix B (+1 mM F6P)
[6] = 500 uM analog, premix A (no F6P)
[7] = 500 uM analog, premix B (+1 mM F6P)

SMILES: [F-].[Na+] [NaF]
- increase in concentration necessary to be bacteriocidal (bacteria; relative to inhibitory concentration): 30 fold
- concentration required for inhibitory effects (bacteria; vehicles): > 100 μl/ml

SMILES: N=C(NCCCCCCNC(=N)NC(=N)Nc1ccc(Cl)cc1)NC(=N)Nc1ccc(Cl)cc1.O=C(O)[C@H](O)[C@@H](O)[C@H](O)[C@H](O)CO.O=C(O)[C@H](O)[C@@H](O)[C@H](O)[C@H](O)CO [chlorhexidine gluconate]
- return to pre-rinse levels after [1]: 7 h

SMILES: CCCCC(CC)CNC(=N)NC(=N)NCCCCCCNC(=N)NC(=N)NCC(CC)CCCC (stereo not drawn) [alexidine]
- return to pre-rinse levels after [1]: 5 h

SMILES: CCCCC(CC)CN1CN(CC(CC)CCCC)CC(C)(N)C1 (stereo not drawn) [hexetidine]
- return to pre-rinse levels after [1]: 1.5 h

SMILES: BP(=O)(OC[C@H]1O[C@@H](n2cnc3c(N)ncnc32)[C@H](O)[C@@H]1O)OP(=O)(O)O[C@H]1O[C@H](CO)[C@@H](O)[C@H](O)[C@H]1O (single isomer, unassigned) [Analog II, adenosine-α-P-boranodiphosphoglucose]
- *2.2 ([2]; 5 uM analog, premix A (no F6P)): 1.122
- CPM ([2]; 5 uM analog, premix A (no F6P)): 477.00 CPM
- Units/mg ([2]; 5 uM analog, premix A (no F6P)): 5.28 Units/mg
- cor. CPM ([2]; 5 uM analog, premix A (no F6P)): 420.67 CPM
- dil. Corr ([2]; 5 uM analog, premix A (no F6P)): 89.743 nmol/min/µL
- nmol ([2]; 5 uM analog, premix A (no F6P)): 0.51 nmol
- nmol/min ([2]; 5 uM analog, premix A (no F6P)): 0.112 nmol/min
- nmol/min/uL ([2]; 5 uM analog, premix A (no F6P)): 0.0112 nmol/min/µL
- *2.2 [2, 3]: 19.946
- CPM [2, 3]: 7536.00 CPM
- Units/mg [2, 3]: 93.86 Units/mg
- cor. CPM [2, 3]: 7479.67 CPM
- dil. Corr [2, 3]: 1595.663 nmol/min/µL
- nmol [2, 3]: 9.07 nmol
- nmol/min [2, 3]: 1.995 nmol/min
- nmol/min/uL [2, 3]: 0.1995 nmol/min/µL
- *2.2 [2, 4]: 0.930
- CPM [2, 4]: 399.67 CPM
- Units/mg [2, 4]: 4.38 Units/mg
- cor. CPM [2, 4]: 348.67 CPM
- dil. Corr [2, 4]: 74.383 nmol/min/µL
- nmol [2, 4]: 0.42 nmol
- nmol/min [2, 4]: 0.093 nmol/min
- nmol/min/uL [2, 4]: 0.0093 nmol/min/µL
- *2.2 [2, 5]: 16.305
- CPM [2, 5]: 6165.33 CPM
- Units/mg [2, 5]: 76.73 Units/mg
- cor. CPM [2, 5]: 6114.33 CPM
- dil. Corr [2, 5]: 1304.390 nmol/min/µL
- nmol [2, 5]: 7.41 nmol
- nmol/min [2, 5]: 1.630 nmol/min
- nmol/min/uL [2, 5]: 0.1630 nmol/min/µL
- *2.2 [2, 6]: 0.376
- CPM [2, 6]: 194.33 CPM
- Units/mg [2, 6]: 1.77 Units/mg
- cor. CPM [2, 6]: 141.00 CPM
- dil. Corr [2, 6]: 30.080 nmol/min/µL
- nmol [2, 6]: 0.17 nmol
- nmol/min [2, 6]: 0.038 nmol/min
- nmol/min/uL [2, 6]: 0.0038 nmol/min/µL
- *2.2 [2, 7]: 7.122
- CPM [2, 7]: 2724.00 CPM
- Units/mg [2, 7]: 33.51 Units/mg
- cor. CPM [2, 7]: 2670.67 CPM
- dil. Corr [2, 7]: 569.743 nmol/min/µL
- nmol [2, 7]: 3.24 nmol
- nmol/min [2, 7]: 0.712 nmol/min
- nmol/min/uL [2, 7]: 0.0712 nmol/min/µL
- inhibition of Rb.s. ADPG Ppase ([2]; absence of the activator F6P): about 70%
- inhibition of Rb.s. ADPG Ppase ([2]; presence of F6P): about 70%

SMILES: BP(=O)(OC[C@H]1O[C@@H](n2cnc3c(N)ncnc32)[C@H](O)[C@@H]1O)OP(=O)(O)O[C@H]1O[C@H](CO)[C@@H](O)[C@H](O)[C@H]1O (single isomer, unassigned) [Analog I, adenosine-α-P-boranodiphosphoglucose]
- *2.2 ([2]; 5 uM analog, premix A (no F6P)): 0.854
- CPM ([2]; 5 uM analog, premix A (no F6P)): 380.67 CPM
- Units/mg ([2]; 5 uM analog, premix A (no F6P)): 4.02 Units/mg
- cor. CPM ([2]; 5 uM analog, premix A (no F6P)): 320.34 CPM
- dil. Corr ([2]; 5 uM analog, premix A (no F6P)): 68.339 nmol/min/µL
- nmol ([2]; 5 uM analog, premix A (no F6P)): 0.39 nmol
- nmol/min ([2]; 5 uM analog, premix A (no F6P)): 0.085 nmol/min
- nmol/min/uL ([2]; 5 uM analog, premix A (no F6P)): 0.0085 nmol/min/µL
- *2.2 [2, 3]: 19.496
- CPM [2, 3]: 7371.33 CPM
- Units/mg [2, 3]: 91.75 Units/mg
- cor. CPM [2, 3]: 7311.00 CPM
- dil. Corr [2, 3]: 1559.680 nmol/min/µL
- nmol [2, 3]: 8.86 nmol
- nmol/min [2, 3]: 1.950 nmol/min
- nmol/min/uL [2, 3]: 0.1950 nmol/min/µL
- *2.2 [2, 4]: 0.755
- CPM [2, 4]: 359.33 CPM
- Units/mg [2, 4]: 3.55 Units/mg
- cor. CPM [2, 4]: 283.00 CPM
- dil. Corr [2, 4]: 60.373 nmol/min/µL
- nmol [2, 4]: 0.34 nmol
- nmol/min [2, 4]: 0.075 nmol/min
- nmol/min/uL [2, 4]: 0.0075 nmol/min/µL
- *2.2 [2, 5]: 18.572
- CPM [2, 5]: 7041.00 CPM
- Units/mg [2, 5]: 87.40 Units/mg
- cor. CPM [2, 5]: 6964.67 CPM
- dil. Corr [2, 5]: 1485.796 nmol/min/µL
- nmol [2, 5]: 8.44 nmol
- nmol/min [2, 5]: 1.857 nmol/min
- nmol/min/uL [2, 5]: 0.1857 nmol/min/µL
- *2.2 [2, 6]: 0.284
- CPM [2, 6]: 160.00 CPM
- Units/mg [2, 6]: 1.33 Units/mg
- cor. CPM [2, 6]: 106.33 CPM
- dil. Corr [2, 6]: 22.684 nmol/min/µL
- nmol [2, 6]: 0.13 nmol
- nmol/min [2, 6]: 0.028 nmol/min
- nmol/min/uL [2, 6]: 0.0028 nmol/min/µL
- *2.2 [2, 7]: 11.341
- CPM [2, 7]: 4306.67 CPM
- Units/mg [2, 7]: 53.37 Units/mg
- cor. CPM [2, 7]: 4253.00 CPM
- dil. Corr [2, 7]: 907.307 nmol/min/µL
- nmol [2, 7]: 5.16 nmol
- nmol/min [2, 7]: 1.134 nmol/min
- nmol/min/uL [2, 7]: 0.1134 nmol/min/µL
- inhibition of Rb.s. ADPG Ppase ([2]; absence of the activator F6P): about 75%
- inhibition of Rb.s. ADPG Ppase ([2]; presence of F6P): ~50%
